The results in this text go back to patent US8513238B2 (Hoffmann-La Roche Inc., priority 2010, dated 2013).

Structures are written as SMILES. Structures can show the parent of a compound that is named as a salt.

For the assay, the target named is T1, human V1a receptor (Homo sapiens, UniProt P37288).
T1 construct: expressed in transfected cells; host or cells: HEK293 cells, transiently transfected; membranes prepared
T1 sequence (P37288 whole entry): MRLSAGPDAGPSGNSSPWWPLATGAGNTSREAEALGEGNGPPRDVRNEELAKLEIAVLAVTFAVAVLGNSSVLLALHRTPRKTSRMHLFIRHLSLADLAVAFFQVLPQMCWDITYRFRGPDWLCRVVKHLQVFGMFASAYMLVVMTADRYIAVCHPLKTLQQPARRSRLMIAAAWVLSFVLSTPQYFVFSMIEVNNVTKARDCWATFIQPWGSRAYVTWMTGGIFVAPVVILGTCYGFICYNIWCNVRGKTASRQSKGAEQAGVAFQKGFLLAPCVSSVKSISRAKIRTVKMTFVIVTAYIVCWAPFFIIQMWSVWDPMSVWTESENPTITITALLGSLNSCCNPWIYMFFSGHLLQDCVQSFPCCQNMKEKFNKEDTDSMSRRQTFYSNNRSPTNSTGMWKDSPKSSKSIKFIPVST
Put plainly: human V1a receptor binding (3H-Vasopressin SPA, HEK293 membranes). The following applies: membranes of HEK293 cells transiently transfected with human V1a receptor, Ki by Cheng-Prussoff, read-out: pKi (hV1a) (converted). As for the experimental part: The human V1a receptor was cloned by RT-PCR from total human liver RNA. The coding sequence was subcloned in an expression vector after sequencing to confirm the identity of the amplified sequence. […] Cell membranes were prepared from HEK293 cells transiently transfected with the expression vector and grown in 20 liter fermenters with the following protocol.
50 g of cells are resuspended in 30 ml freshly prepared ice cold Lysis buffer (50 mM HEPES, 1 mM EDTA, 10 mM magnesium dichloride adjusted to pH=7.4+complete cocktail of protease inhibitor (Roche Diagnostics)). Homogenized with Polytron for 1 min and sonicated on ice for 2×2 minutes at 80% intensity (Vibracell sonicator). The preparation is centrifuged 20 min at 500 g at 4° C., the pellet is discarded and the supernatant centrifuged 1 hour at 43,000 g at 4° C. (19,000 rpm). The pellet is resuspended in 12.5 ml Lysis buffer+12.5 ml sucrose 20% and homogenized using a Polytron for 1-2 min. The protein concentration is determined by the Bradford method and aliquots are stored at −80° C. until use. For binding studies 60 mg Yttrium silicate SPA beads (Amersham®) are mixed with an aliquot of membrane in binding buffer (50 mM Tris, 120 mM sodium chloride, 5 mM potassium chloride, 2 mM calcium dichloride, 10 mM magnesium dichloride) for 15 minutes with mixing. 50 μl of bead/membrane mixture is then added to each well of a 96 well plate, followed by 50 μl of 4 nM 3H-Vasopressin (American Radiolabeled Chemicals). For total binding measurement 100 μl of binding buffer are added to the respective wells, for non-specific binding 100 μl of 8.4 mM cold vasopressin and for compound testing 100 μl of a serial dilution of each compound in 2% dimethyl sulfoxide. The plate is incubated 1 h at room temperature, centrifuged 1 min at 1000 g and counted on a Packard Top-Count. Non-specific binding counts are subtracted from each well and data is normalized to the maximum specific binding set at 100%. To calculate an IC50 the curve is fitted using a non-linear regression model (XLfit) and the Ki is calculated using the Cheng-Prussoff equation.
Consider `Cc1nc([C@H]2CC[C@@H](c3nnc4n3-c3ccc(Cl)cc3CN(C)C4)CC2)no1` [Example 84, cis-8-Chloro-5-methyl-1-[4-(5-methyl-[1,2,4]oxadiazol-3-yl)-cyclohexyl]-5,6-dihydro-4H-2,3,5,10b-tetraaza-benzo[e]azulene], for which the Ki is 135 nM. For the compound `Cc1cc([C@H]2CC[C@H](c3nnc4n3-c3ccc(F)cc3CN(C(=O)OC(C)(C)C)C4)CC2)no1` [Example 36, trans-8-Fluoro-1-[4-(5-methyl-isoxazol-3-yl)-cyclohexyl]-4H,6H-2,3,5,10b-tetraaza-benzo[e]azulene-5-carboxylic acid tert-butyl ester], the Ki is 0.776 nM. Consider `CC(C)(C)OC(=O)N1Cc2cc(Cl)ccc2-n2c(nnc2[C@H]2CC[C@H](c3noc(CO)c3CO)CC2)C1` [Example 108, trans-1-[4-(4,5-Bis-hydroxymethyl-isoxazol-3-yl)-cyclohexyl]-8-chloro-4H,6H-2,3,5,10b-tetraaza-benzo[e]azulene-5-carboxylic acid tert-butyl ester], for which the Ki is 12.6 nM. Turning to `CC(C)c1nc([C@H]2CC[C@H](c3nnc4n3-c3ccc(Cl)cc3CNC4)CC2)no1` [Example 93, trans-8-Chloro-1-[4-(5-isopropyl-[1,2,4]oxadiazol-3-yl)-cyclohexyl]-5,6-dihydro-4H-2,3,5,10b-tetraaza-benzo[e]azulene hydrochloride], the Ki is 263 nM. With `Clc1ccc2c(c1)CNCc1nnc([C@H]3CC[C@H](c4onc5c4CCCC5)CC3)n1-2` [Example 61, trans-8-Chloro-1-[4-(4,5,6,7-tetrahydro-benzo[c]isoxazol-3-yl)-cyclohexyl]-5,6-dihydro-4H-2,3,5,10b-tetraaza-benzo[e]azulene] the figure was 30.2 nM; with `CC(C)c1nc([C@H]2CC[C@@H](c3nnc4n3-c3ccc(Cl)cc3CN(C)C4)CC2)no1` [Example 96], 204 nM. With `CNCCN1Cc2cc(Cl)ccc2-n2c(nnc2[C@H]2CC[C@H](c3cc(C)on3)CC2)C1` [Example 30, trans-(2-{8-Chloro-1-[4-(5-methyl-isoxazol-3-yl)-cyclohexyl]-4H,6H-2,3,5,10b-tetraaza-benzo[e]azulen-5-yl}-ethyl)-methyl-amine] the figure was 25.1 nM; with `Cc1onc([C@H]2CC[C@H](c3nnc4n3-c3ccc(Cl)cc3CN(C(=O)OC(C)(C)C)C4)CC2)c1Cl` [Example 42, trans-8-Chloro-1-[4-(4-chloro-5-methyl-isoxazol-3-yl)-cyclohexyl]-4H,6H-2,3,5,10b-tetraaza-benzo[e]azulene-5-carboxylic acid tert-butyl ester], 0.398 nM; with `Cc1noc([C@H]2CC[C@H](c3nnc4n3-c3ccc(Cl)cc3CNC4)CC2)n1` [Example 67, trans-8-Chloro-1-[4-(3-methyl-[1,2,4]oxadiazol-5-yl)-cyclohexyl]-5,6-dihydro-4H-2,3,5,10b-tetraaza-benzo[e]azulene hydrochloride], 67.6 nM. The figure for `CCc1cc([C@H]2CC[C@@H](c3nnc4n3-c3ccc(Cl)cc3CNC4)CC2)no1` [Example 50, cis-8-Chloro-1-[4-(5-ethyl-isoxazol-3-yl)-cyclohexyl]-5,6-dihydro-4H-2,3,5,10b-tetraaza-benzo[e]azulene hydrochloride] is 182 nM; for `Cc1nsc([C@H]2CC[C@H](c3nnc4n3-c3ccc(Cl)cc3CN(C)C4)CC2)n1` [Example 71, trans-8-Chloro-5-methyl-1-[4-(3-methyl-[1,2,4]thiadiazol-5-yl)-cyclohexyl]-5,6-dihydro-4H-2,3,5,10b-tetraaza-benzo[e]azulene] it is 15.1 nM; for `CCc1cc([C@H]2CC[C@H](c3nnc4n3-c3ccc(Cl)cc3CN(C(=O)OC(C)(C)C)C4)CC2)no1` [Example 49, trans-8-Chloro-1-[4-(5-ethyl-isoxazol-3-yl)-cyclohexyl]-4H,6H-2,3,5,10b-tetraaza-benzo[e]azulene-5-carboxylic acid tert-butyl ester] it is 4.07 nM. Take `Cc1nc([C@H]2CC[C@H](c3nnc4n3-c3ccc(Cl)cc3CNC4)CC2)oc1C` [Example 11, trans-8-Chloro-1-[4-(4,5-dimethyl-oxazol-2-yl)-cyclohexyl]-5,6-dihydro-4H-2,3,5,10b-tetraaza-benzo[e]azulene]: the Ki is 5.5 nM. On to `CCN1Cc2cc(Cl)ccc2-n2c(nnc2[C@H]2CC[C@H](c3noc(C)n3)CC2)C1` [Example 75, trans-8-Chloro-5-ethyl-1-[4-(5-methyl-[1,2,4]oxadiazol-3-yl)-cyclohexyl]-5,6-dihydro-4H-2,3,5,10b-tetraaza-benzo[e]azulene], for which the Ki was 6.76 nM.

Consider `Cc1onc([C@H]2CC[C@H](c3nnc4n3-c3ccc(Cl)cc3CN(C(=O)OC(C)(C)C)C4)CC2)c1C` [Example 39, trans-8-Chloro-1-[4-(4,5-dimethyl-isoxazol-3-yl)-cyclohexyl]-4H,6H-2,3,5,10b-tetraaza-benzo[e]azulene-5-carboxylic acid tert-butyl ester], for which the Ki was 0.2 nM.

`Cc1csc([C@H]2CC[C@H](c3nnc4n3-c3ccc(Cl)cc3CN(C(=O)OC(C)(C)C)C4)CC2)n1` [Example 16, trans-8-Chloro-1-[4-(4-methyl-thiazol-2-yl)-cyclohexyl]-4H,6H-2,3,5,10b-tetraaza-benzo[e]azulene-5-carboxylic acid tert-butyl ester]: the Ki is 0.302 nM. With `Cc1nc([C@H]2CC[C@H](c3nnc4n3-c3ccc(Cl)cc3CN(C(=O)OC(C)(C)C)C4)CC2)cs1` [Example 19, trans-8-Chloro-1-[4-(2-methyl-thiazol-4-yl)-cyclohexyl]-4H,6H-2,3,5,10b-tetraaza-benzo[e]azulene-5-carboxylic acid tert-butyl ester] the figure was 0.2 nM; with `Cc1cc(C)n([C@H]2CC[C@H](c3nnc4n3-c3ccc(Cl)cc3CN(C)C4)CC2)n1` [Example 117, trans-8-Chloro-1-[4-(3,5-dimethyl-pyrazol-1-yl)-cyclohexyl]-5-methyl-5,6-dihydro-4H-2,3,5,10b-tetraaza-benzo[e]azulene], 6.92 nM; with `CN1Cc2cc(Cl)ccc2-n2c(nnc2[C@H]2CC[C@H](c3noc4c3CCC4)CC2)C1` [Example 107, trans-8-Chloro-1-[4-(5,6-dihydro-4H-cyclopenta[d]isoxazol-3-yl)-cyclohexyl]-5-methyl-5,6-dihydro-4H-2,3,5,10b-tetraaza-benzo[e]azulene], 1.58 nM. With `Cc1nc([C@H]2CC[C@H](c3nnc4n3-c3ccc(Cl)cc3CN(C)C4)CC2)sc1Cl` [Example 103, trans-8-Chloro-1-[4-(5-chloro-4-methyl-thiazol-2-yl)-cyclohexyl]-5-methyl-5,6-dihydro-4H-2,3,5,10b-tetraaza-benzo[e]azulene] the figure was 1.58 nM; with `Cc1onc([C@H]2CC[C@H](c3nnc4n3-c3ccc(Cl)cc3CN(C(=O)OC(C)(C)C)C4)CC2)c1F` [Example 45, trans-8-Chloro-1-[4-(4-fluoro-5-methyl-isoxazol-3-yl)-cyclohexyl]-4H,6H-2,3,5,10b-tetraaza-benzo[e]azulene-5-carboxylic acid tert-butyl ester], 0.724 nM; with `CCc1cc([C@H]2CC[C@H](c3nnc4n3-c3ccc(Cl)cc3CNC4)CC2)no1` [Example 52, trans-8-Chloro-1-[4-(5-ethyl-isoxazol-3-yl)-cyclohexyl]-5,6-dihydro-4H-2,3,5,10b-tetraaza-benzo[e]azulene hydrochloride], 6.31 nM. With `Cc1noc([C@H]2CC[C@H](c3nnc4n3-c3ccc(Cl)cc3CN(C)C4)CC2)n1` [Example 68, trans-8-Chloro-5-methyl-1-[4-(3-methyl-[1,2,4]oxadiazol-5-yl)-cyclohexyl]-5,6-dihydro-4H-2,3,5,10b-tetraaza-benzo[e]azulene] the figure was 6.61 nM. Regarding `Cc1cc([C@H]2CC[C@H](c3nnc4n3-c3ccc(Cl)cc3CN(S(=O)(=O)N(C)C)C4)CC2)no1` [Example 35, trans-8-Chloro-1-[4-(5-methyl-isoxazol-3-yl)-cyclohexyl]-4H,6H-2,3,5,10b-tetraaza-benzo[e]azulene-5-sulfonic acid dimethylamide], the Ki is 0.501 nM. With `CC(=O)N1Cc2cc(Cl)ccc2-n2c(nnc2[C@H]2CC[C@H](c3noc(C)n3)CC2)C1` [Example 80, trans-1-{8-Chloro-1-[4-(5-methyl-[1,2,4]oxadiazol-3-yl)-cyclohexyl]-4H,6H-2,3,5,10b-tetraaza-benzo[e]azulen-5-yl}-ethanone] the figure was 22.9 nM; with `Cc1nc([C@H]2CC[C@H](c3nnc4n3-c3ccc(Cl)cc3CN(C3CCC3)C4)CC2)no1` [Example 77, trans-8-Chloro-5-cyclobutyl-1-[4-(5-methyl-[1,2,4]oxadiazol-3-yl)-cyclohexyl]-5,6-dihydro-4H-2,3,5,10b-tetraaza-benzo[e]azulene], 1.51 nM.
